Reference: patent EP0241232A1, “Isoxazolylethanol derivatives” (SHIONOGI SEIYAKU KABUSHIKI KAISHA, priority 1986, dated 1987)
Like-named read-outs stand apart in the source and are kept apart here.

How the values were obtained:
Puccinia coronata = experiment: Control by seed-soaking: crown rust in oats; assay type: in vivo
Procedure: (§1) The test compound was dissolved in 0.2 ml of acetone and suspended in demineralized distilled water containing a small amount of spreader, to a concentration of 500 ppm. The suspension was further diluted to one quarter dilution with demineralized distilled water (containing a small amount of spreader) to give a suspension in 125 ppm. All seeds of oats, wheat and cucumber were soaked in these suspensions at room temperature for an hour and then the seeds were air-dried.
(§2) The seeds as described above were sown in plastic pots (diameter : 9 cm). For rust and powdery mildews, the pots were kept in a glasshouse for 1 - 3 weeks until the seeds grew to young plants. The young oats (10 - 20 plants per pot) were inoculated by dusting with spores of Puccinia coronata, and the wheat (10 - 20 plants per pot) was also inoculated by spraying with spores of Erysiphe graminis f. sp. tritici, and the cucumber (1 plant per pot) was also inoculated by spraying with spore suspension of Sphaerotheca fuliginea. These inoculated plants were further kept in a glasshouse for 10 - 14 days until assessment. For damping-off, the treated seeds were sown in paper pots (diameter : 7.5 cm; depth : 6 cm) which contained soil infested with Rhizoctonia solani by mixing sterilized soil and pre-cultured fungus. Then the pots were kept in a humid glasshouse at 25 - 32 ^*C.
(§3) Damping-off was observed 15 days after sowing, and disease degree and control effect were obtained from the following equations. [formula] [formula] where diseased seedlings included damping-off and unemerged'seeds due to infection. For the foliar diseases, disease development was observed 10 - 14 days after inoculation of spores, and control effect was obtained by the following index.

Rhizoctonia solani = experiment: Control by seed-soaking: Rhizoctonia damping-off in cucumber; assay type: in vivo; details: 360 h, read-out: Control Index Rhizoctonia Damping-Off in Cucumber
Procedure: as §1, §2, §3

Candida albicans KE-2 [1] = experiment: Therapeutic effect against experimental candidiasis in mice; assay type: in vivo; details: KE2, po, 120 h, mouse survival ratio on the 5th day after infection, Jcl-ICR female mouse, 50 mg/kg orally three times (0, 4, 24 hours)
Procedure: After Candida albicans KE-2 was incubated on Sabouraud's glucose agar at 28 °C for 48 hr., it was suspended in Sabouraud's glucose broth and the cells ([…]) were injected to a tail vein of Jcl-ICR female mouse (4 weeks age; weight : 18 - 20 g). A suspension of the test compound in 2 % gum arabic was orally administered three times, immediately after infection of the yeast ( 0 hour), after 4 hours and after 24 hours, as a dosage of 50 mg/kg. Non-treated group was used as control. Each eight mice per group was used in control group and treated group. All the mice in control group died within 48 hr. after infection. Therapeutic effect of the test compound was judged by mouse survival ratio on the 5th day after infection.

[2] = system: Erysiphe graminis f. sp. tritici; experiment: Control by seed-soaking: powdery mildew in wheat; assay type: in vivo
Procedure: as §1, §2, §3

Candida albicans KE-2 [3] = experiment: Inhibition test against pseudomycelium formation of Candida albicans; assay type: cell-based; details: KE2, minimum effective concentration preventing typical pseudomycelium formation, Eagle-MEM + 20 % calf serum, 18 hours at 37 °C, read-out: Inhibitory Concentration of Pseudo-myselium Formation
Procedure: Candida albicans KE-2 was inoculated to Eagle-MEM medium (Nissan 2 made by Nissui Seiyaku, Ltd.) supplemented with 20 % calf serum so that its final inoculum of yeast cell might be 1 x 10^6 yeast cells per milliliter. The test compounds were added thereon in two fold dilution series. After incubation for 18 hours at 37 °C, the fungal growth in each drug concentration was smeared and fixed on a slide glass, and the presence or absence of the pseudomycelium formation was examined by a microscope following Giemsa staining. Minimum effective concentration was defined as the lowest concentration of the compound which prevented typical pseudomycelium formation.

Sphaerotheca fuliginea [4] = experiment: Control by seed-soaking: powdery mildew in cucumber; assay type: in vivo
Procedure: as §1, §2, §3

Sphaerotheca fuliginea [5] = experiment: Control of cucumber powdery mildew by foliar spray; assay type: in vivo; details: observed 10 days after inoculation; for Control Index Preventive Effect: inoculation 24 hr. after application; for Control Index Curative Effect: inoculation 24 hr. before application
Procedure: The test compound was dissolved in a small amount of acetone and suspended in demineralized distilled water containing a spreader, to a concentration of 7.8 ppm and 2.0 ppm. Young cucumber plants (c.v. Tsukuba-Shiroibo) of 2-leaf stage grown in pots were sprayed sufficiently with the suspension.
Spores of Sphaerotheca fuliginea cultured in cucumber plants were collected and suspended in distilled water. Inoculation was made by spraying with the spore suspension to the test plant of 24 hr. after application of the test compound (preventive control) or 24 hr. before application (curative control).
Development of the disease was observed 10 days after inoculation and control index was obtained as described in Experiment 3.

[6] = seed-soaking, 125 ppm, observed 15 days after sowing, control effect by equation
[7] = seed-soaking, 500 ppm, observed 15 days after sowing, control effect by equation

Compound | pest or weed control at 125 ppm (Rhizoctonia solani; [6]) [%] | pest or weed control at 500 ppm (Rhizoctonia solani; [7]) [%] | responders at 50 mg/kg (Candida albicans KE-2 [1]) [%] | minimal effective concentration (Candida albicans KE-2 [3]) [µg/mL] | Control Index Preventive Effect (Sphaerotheca fuliginea [5]; foliar spray 2.0 ppm) | Control Index Curative Effect (Sphaerotheca fuliginea [5]; foliar spray 2.0 ppm) | Control Index Preventive Effect (Sphaerotheca fuliginea [5]; foliar spray 7.8 ppm) | Control Index Curative Effect (Sphaerotheca fuliginea [5]; foliar spray 7.8 ppm) | further results
OC(Cn1cncn1)(c1ccc(F)cc1)c1ccon1 (stereo not drawn) [Ia - 1, 1-(4-Fluorophenyl)-1-(isoxazol-3-yl)-2-(1H-1,2,4-triazol-l-yl)ethanol] | 71 | 90 | 87.5 | 0.31 |  |  |  |  | Control Index Crown Rust in Oats (Puccinia coronata; 125 ppm): 50 (Leaves covered with symptom between 46 % and 65 % area); Control Index Crown Rust in Oats (Puccinia coronata; 500 ppm): 90 (Leaves covered with symptom between 4 % and 15 % area); Control Index Powdery Mildew in Wheat ([2]; 125 ppm): 70 (Leaves covered with symptom between 16 % and 45 % area); Control Index Powdery Mildew in Wheat ([2]; 500 ppm): 100; Control Index Powdery Mildew in Cucumber (Sphaerotheca fuliginea [4]; 125 ppm): 0 (Leaves covered with symptom more than 66 %); Control Index Powdery Mildew in Cucumber (Sphaerotheca fuliginea [4]; 500 ppm): 70 (Leaves covered with symptom between 16 % and 45 % area)
Cc1cc(C(O)(Cn2cncn2)c2ccc(Cl)cc2)no1 (stereo not shown) [Ia - 5] | 66 | 94 | 87.5 | 0.02 | 70 (Leaves covered with symptom between 16 % and 45 % area) | 97 (Leaves covered with symptom less than 3 % area) | 97 (Leaves covered with symptom less than 3 % area) | 100 | Control Index Crown Rust in Oats (Puccinia coronata; 125 ppm): 50 (Leaves covered with symptom between 46 % and 65 % area); Control Index Crown Rust in Oats (Puccinia coronata; 500 ppm): 97 (Leaves covered with symptom less than 3 % area); Control Index Powdery Mildew in Wheat ([2]; 125 ppm): 70 (Leaves covered with symptom between 16 % and 45 % area); Control Index Powdery Mildew in Wheat ([2]; 500 ppm): 100; Control Index Powdery Mildew in Cucumber (Sphaerotheca fuliginea [4]; 125 ppm): 0 (Leaves covered with symptom more than 66 %); Control Index Powdery Mildew in Cucumber (Sphaerotheca fuliginea [4]; 500 ppm): 70 (Leaves covered with symptom between 16 % and 45 % area)
Cc1cc(C(O)(Cn2cncn2)c2ccc(F)cc2)no1 (stereo not shown) [Ia - 6] | 54 | 85 |  | 0.16 |  |  |  |  | 
Cc1cc(C(O)(Cn2cncn2)c2ccc(Cl)cc2Cl)no1 (stereo not shown) [Ia - 7] | 92 | 94 |  | 0.02 | 90 (Leaves covered with symptom between 4 % and 15 % area) | 97 (Leaves covered with symptom less than 3 % area) | 100 | 100 | Control Index Crown Rust in Oats (Puccinia coronata; 125 ppm): 70 (Leaves covered with symptom between 16 % and 45 % area); Control Index Crown Rust in Oats (Puccinia coronata; 500 ppm): 100; Control Index Powdery Mildew in Wheat ([2]; 125 ppm): 70 (Leaves covered with symptom between 16 % and 45 % area); Control Index Powdery Mildew in Wheat ([2]; 500 ppm): 70 (Leaves covered with symptom between 16 % and 45 % area)
Cc1cc(C(O)(Cn2cncn2)c2ccc(F)cc2F)no1 (stereo not shown) [Ia - 8] | 74 | 94 | 50 | 0.08 | 90 (Leaves covered with symptom between 4 % and 15 % area) | 90 (Leaves covered with symptom between 4 % and 15 % area) | 97 (Leaves covered with symptom less than 3 % area) | 100 | 
Cc1cc(C(O)(Cn2cncn2)c2ccccc2)no1 (stereo not shown) [Ia - 9] |  |  |  | 0.31 |  |  |  |  | 
CCc1cc(C(O)(Cn2cncn2)c2ccc(F)cc2F)no1 (stereo not shown) [Ia - 10] |  |  | 50 | 0.08 |  |  |  |  | 
CCCCc1cc(C(O)(Cn2cncn2)c2ccc(F)cc2F)no1 (stereo not shown) [Ia - 11] |  |  | 50 | 0.04 |  |  |  |  | 
CC(C)(C)c1cc(C(O)(Cn2cncn2)c2ccc(F)cc2F)no1 (stereo not shown) [Ia - 12] |  |  |  | 0.31 |  |  |  |  | 
Cc1cc(C(O)(Cn2ccnc2)c2ccc(F)cc2)no1 (stereo not shown) [Ia - 13, 1-(4-Fluorophenyl)-1-(5-methylisoxazol-3-yl)-2-(1H-imidazol-1-yl)ethanol] |  |  |  | 0.63 |  |  |  |  | 
Cc1onc(C(O)(Cn2cncn2)c2ccc(Cl)cc2)c1Cl (stereo not shown) [Ib - 1, 1-(4-Chlorophenyl)-1-(5-methyl-4-chloroisoxazol-3-yl)-2-(1H-1,2,4-triazol-1-yl)ethanol] | 35 | 88 |  | 0.31 | 70 (Leaves covered with symptom between 16 % and 45 % area) | 97 (Leaves covered with symptom less than 3 % area) | 97 (Leaves covered with symptom less than 3 % area) | 100 | 
Cc1onc(C(O)(Cn2cncn2)c2ccc(F)cc2)c1Cl (stereo not shown) [Ib - 2] | 60 | 85 |  | 1.25 |  |  |  |  | 
Cc1onc(C(O)(Cn2cncn2)c2ccccc2)c1Cl (stereo not shown) [Ib - 3] |  |  |  | 1.25 |  |  |  |  | 
CC(C)(C)C(=O)C(Oc1ccc(Cl)cc1)n1cncn1 (stereo not shown) [Triadi-mefon, reference compound] |  |  |  |  | 90 (Leaves covered with symptom between 4 % and 15 % area) | 90 (Leaves covered with symptom between 4 % and 15 % area) | 90 (Leaves covered with symptom between 4 % and 15 % area) | 90 (Leaves covered with symptom between 4 % and 15 % area) | Control Index Crown Rust in Oats (Puccinia coronata; 125 ppm): 50 (Leaves covered with symptom between 46 % and 65 % area); Control Index Crown Rust in Oats (Puccinia coronata; 500 ppm): 97 (Leaves covered with symptom less than 3 % area); pest or weed control at 125 ppm (Rhizoctonia solani): 34%; pest or weed control at 500 ppm (Rhizoctonia solani): 49%; Control Index Powdery Mildew in Wheat ([2]; 125 ppm): 90 (Leaves covered with symptom between 4 % and 15 % area); Control Index Powdery Mildew in Wheat ([2]; 500 ppm): 100; Control Index Powdery Mildew in Cucumber (Sphaerotheca fuliginea [4]; 125 ppm): 0 (Leaves covered with symptom more than 66 %); Control Index Powdery Mildew in Cucumber (Sphaerotheca fuliginea [4]; 500 ppm): 70 (Leaves covered with symptom between 16 % and 45 % area)
